The source of these data is patent publication US10059655B2, “Lipids and lipid compositions for the delivery of active agents” (priority 2013, dated 2018).

Common to all, as to assay type: in vivo
One assay relates to hLeptin. In words: Human leptin in mouse plasma (ELISA) after IV tail vein injection of encapsulated leptin mRNA. The following applies: 0.4 mpk, C57 mice, @ 24 h. The method, then: Human leptin in mouse plasma was measured by ELISA. Antibodies purchased from the R&D Systems duoset (Cat# DY398E, part#840279 for capture antibody and part#840280 for detection antibody) were reconstituted using PBS and titered, again using PBS. The capture antibody was coated at 4 ug/ml in 30 ul/well on a white Nunc® Maxisorp 384 well plate (Cat#460372). After an overnight incubation at room temperature the capture antibody was aspirated and the plate blocked for 2 hours at room temperature with 90 ul/well of KPL milk blocker (Cat#50-82-00). Once the incubation was completed the plate was aspirated and recombinant standards and samples were added to the plate at 30 ul/well for 2 hours at 37° C. while shaking at 600 rpm. Sample/standard dilutions were made using casein sample diluent. Washing/aspiration 3 times with 100 ul/well followed, using Teknova plate wash solution (Cat# P1192). […] The plate was quickly read using a SpectramaxM5 plate reader with a 50 ms integration time. […]
Before the tail vein injection, mouse body weights were recorded and diet weighted, with mice grouped according to their body weights. […]
On day 0, animals were weighed and sorted according to average body weight. Mice were dosed, and food intake (FI) was recorded, on each of days 1-7 and days 9, 11, and 16.
On the technique in general: In an ELISA, binding on a coated surface is turned into a signal by an enzyme label.

The next assay has as its system mEPO. In words: Mouse EPO ELISA after IV injection of encapsulated mEPO mRNA. The following applies: 0.2 mpk, ob/ob mice, @ 24 h. Here is the method: A rat anti-mouse Erythropoietin antibody is coated on 384-well white microtiter plates overnight, then blocked for assay. Then, plasma samples are diluted in a casein-based sample diluent and incubated on the plate with buffer controls and mouse EPO standards. The plate is then washed to remove unbound material. A biotinylated rat anti-mouse Erythropoietin antibody is then added to the plate to detect mouse EPO bound by the capture antibody. The plate is washed again and a streptavidin-conjugated horseradish peroxidase reagent is incubated on the plate. A third wash step is performed and a chemiluminescent reagent is added to the plate and immediately read by a capable plate reader using all wavelengths and a 50 millisecond integration time. Unknown samples are interpolated off the mouse EPO standard curve.

The next assay has as its system RSV F protein. In words: RSV immunogenicity: F-specific IgG titers after IM vaccination with liposome-formulated self-replicating RNA. Particulars: IM days 0 and 21, BALB/c mice, two weeks after two immunizations.

SMILES strings stand for the structures.

For `CCCCC/C=C\C/C=C\CCCCCCCC(=O)OCC(COC(=O)CCC(OCCCCCCCC)OCCCCCCCC)COC(=O)OCCCN(CC)CC` (stereo not shown) [Example 13, (9Z,12Z)-3-((4,4-bis(octyloxy)butanoyl)oxy)-2-((((3-(diethylamino)propoxy)carbonyl)oxy)methyl)propyl octadeca-9,12-dienoate], the “Expression of protein following IV injection of encapsulated mRNA: hLeptin” value with hLeptin turned out to be 3.8 ng/mL.

For the compound `CCCCC/C=C\C/C=C\CCCCCCCC(=O)OCC(COC(=O)CCCCCCC/C=C\C/C=C\CCCCC)COC(=O)C1(C)CCN(C)C1` (stereo not shown) [Example 1, (9Z,9′Z,12Z,12′Z)-2-(((1,3-dimethylpyrrolidine-3-carbonyl)oxy)methyl)propane-1,3-diyl bis(octadeca-9,12-dienoate)], the “Expression of protein following IV injection of encapsulated mRNA: hLeptin” value with hLeptin was determined as 12.3 ng/mL. In addition, the “Expression of protein following IV injection of encapsulated mRNA: mEPO” value in the assay with mEPO worked out at 22.5 ng/mL. The “Immunogenicity (2wp2; log10 IgG titers)” value in the assay on RSV F protein (0.1 ng replicon RNA) is recorded as 3.99 log10 IgG titers; in the assay with RSV F protein (1 ng replicon RNA) it was 4.08 log10 IgG titers.

As for `CCCCC/C=C\C/C=C\CCCCCCCC(=O)OCC(COC(=O)CCC(OCCCCCCCC)OCCCCCCCC)COC(=O)OCC1CCCN(CC)C1` (stereo not shown) [Example 15, (9Z,12Z)-3-((4,4-bis(octyloxy)butanoyl)oxy)-2-(((((1-ethylpiperidin-3-yl)methoxy)carbonyl)oxy)methyl)propyl octadeca-9,12-dienoate], the “Immunogenicity (2wp2; log10 IgG titers)” value is recorded as 4.45 log10 IgG titers in the assay on RSV F protein (0.1 ng replicon RNA) and 4.63 log10 IgG titers in the assay with RSV F protein (1 ng replicon RNA).
